System: neutropenia caused by i.v. LPS
Experiment: LPS-induced neutropenia (endotoxaemia model)
Assay type: in vivo, rat
Conditions: topical in 50% DMSO/50% H2O, 60 min before LPS 1 mg/kg i.v.
Description: The in vivo pharmacological properties of cyclic antagonists were examined following topical dermal administration. A model of endotoxaemia was used, in which 1 mg/kg Escherichia coli […] (LPS; serotype 55:B5, Sigma, USA, stored at 100 mg ml^−1 in dH2O, 4° C.), was injected i.v into a rat, resulting in acute changes in circulating PMN levels and blood pressure. These parameters were measured in the presence and absence of C5aR antagonists (1 mg/kg i.v or 50 mg/kg/rat topically). […] Female Wistar rats weighing between 200-250 g were used for in vivo testing of all C5a receptor antagonists. Rats were anaesthetized using the procedure described above, and transferred on to a heating pad to ensure that body temperature was maintained throughout the experiment. A catheter was inserted in the femoral vein, secured with a suture and flushed with 100 μL of heparinised saline. […] All agents infused i.v were injected over a 2 min period, and were followed with a subsequent injection of 100 μL of saline to ensure complete delivery of the drug. Whole blood samples (0.1 mL) were collected from the tail vein at the time of drug and LPS or C5a administration. Samples were collected at −15, 0, 5, 10, 15, 30, 60, 90, 120 and 150 min relative to the injection of LPS (zero time), and placed in tubes containing heparin (500 Units/mL). To isolate PMNs, 100 μL of blood was layered on to 200 μL of Histopaque 1077 (Sigma U.S.A.) solution and centrifuged at 400×g for 30 min min at room temperature (25° C.). The supernatant layer of platelet-rich plasma, the monocyte and lymphocyte interface and the separation layer of Histopaque were removed and discarded, leaving the PMN and red blood-cell rich layer. […] The number of PMNs was counted on a haemocytometer. The number of cells at each time point was calculated as a percentage of the total number of cells at time zero, prior to complement challenge or LPS. […] Circulating PMN levels were monitored for 150 min following LPS injection, and the percentage change in PMN levels from zero time, when LPS was injected, was calculated.

CC(=O)N[C@@H](Cc1ccccc1)C(=O)N[C@H]1CCCNC(=O)[C@H](CCCNC(=N)N)NC(=O)[C@H](Cc2c[nH]c3ccccc23)NC(=O)[C@@H](CC2CCCCC2)NC(=O)[C@@H]2CCCN2C1=O [Compound 1, Ac-Phe-[Orn-Pro-dCha-Trp-Arg]]
neutropenia response to i.v. LPS: inhibited the neutropenia response
